Measurements: patent publication EP0302824A2 (priority 1987, dated 1989)

How the values were obtained:
[1] = tested on: Heliothis virescens larvae; experiment: Systemic activity of seed applied furathiocarb, larvae caged on maize leaves; type: in vivo
Description: This example includes the results of three test series using different maize cultivars F7 x F2, Centaurus and Arjuna. The basic experimental procedure is that used in example 20 therefore only differences are mentioned here.
Seeds of the hybrid F7 x F2 are treated with 10 g/kg furathiocarb in either PVAc/PVAl or association polymer systems. Treatment techniques are described earlier. Seeds are sown in 4 soil types: 100% quartz sand, 98% quartz sand plus 2% peat, 95% quartz sand plus 5% peat and 90% quartz sand plus 10% peat. Soil moisture is maintained at 10% for the 100% and 98% sand mixtures and at 20% for the other two soil types. All percentages are based on dry weight.
Insecticidal activity is tested by caging 5 first instar Heliothis virescens larvae on each leaf of the maize plants. The insects are caged on the leaves at 9 and 14 days after planting and are allowed to feed for 5 and 3 days respectively. The test is evaluated by counting surviving larvae and by visually assessing feeding damage. To achieve this consistently, the leaf is compared to standard diagrams and the percentage eaten is estimated as 0, 1, 2, 5, 10, 20 or 50% or the total area.
Seeds of the hybrid Centaurus are treated with both 4 and 10 g/kg furathiocarb in either PVAc/PVAl or association polymer systems. Seeds are sown in two soil types either earth from Stein, Canton Aargau, Switzerland (exact description given earlier) or in a 98% sand 2% peat mixture. Moisture content is 20% of dry weight for the former and 10% for the latter. H. virescens is again used to test insecticidal activity. The larvae are caged on the leaves either 8 or 14 days after planting and are allowed to feed for 4 days.
Seeds of the cultivar Arjuna are treated with 2.5 and 10 g/kg furathiocarb in either PVAc/PVAl or association polymer systems. Seeds are sown in the two soil types used in the tests of the hybrid Centaurus. H. virescens is again the test insect and the larvae are caged on individual leaves 10 and 14 days after planting; they are allowed to feed for 4 days. Only 10 g rates are tested at the second date.

[2] = Solubilization of furathiocarb in aqueous surfactant solutions, UV spectroscopy; type: physicochemical; conditions: for enhancement in the solubility (increase): 1000 ppm
Description: This example compares the solubilization of the biocide furathiocarb in a variety of aqueous surfactant solutions (1000 ppm). Experimental Note: 5 µl of furathiocarb (∼ 0.0060-0.0070 g) is pipetted into 10 ml aqueous solutions and stirred overnight. Analysis is performed by UV spectroscopy.

[3] = cultivar Arjuna, 98% Sand, time 1 week, Association Polymer, dosage 2.5 g
[4] = cultivar Arjuna, 98% Sand, time 1 week, Association Polymer, dosage 10 g
[5] = cultivar Arjuna, 98% Sand, time 1 week, PVAc/PVAl, dosage 2.5 g
[6] = cultivar Arjuna, 98% Sand, time 1 week, PVAc/PVAl, dosage 10 g
[7] = cultivar Arjuna, 98% Sand, time 2 weeks, Association Polymer, dosage 10 g
[8] = cultivar Arjuna, 98% Sand, time 2 weeks, PVAc/PVAl, dosage 10 g
[9] = cultivar Arjuna, Stein Earth, time 1 week, Association Polymer, dosage 2.5 g
[10] = cultivar Arjuna, Stein Earth, time 1 week, Association Polymer, dosage 10 g
[11] = cultivar Arjuna, Stein Earth, time 1 week, PVAc/PVAl, dosage 2.5 g
[12] = cultivar Arjuna, Stein Earth, time 1 week, PVAc/PVAl, dosage 10 g
[13] = cultivar Arjuna, Stein Earth, time 2 weeks, Association Polymer, dosage 10 g
[14] = cultivar Arjuna, Stein Earth, time 2 weeks, PVAc/PVAl, dosage 10 g
[15] = hybrid Centaurus, 98% Sand, time 1 week, Association Polymer, dosage 4 g
[16] = hybrid Centaurus, 98% Sand, time 1 week, Association Polymer, dosage 10 g
[17] = hybrid Centaurus, 98% Sand, time 1 week, PVAc/PVAl, dosage 4 g
[18] = hybrid Centaurus, 98% Sand, time 1 week, PVAc/PVAl, dosage 10 g
[19] = hybrid Centaurus, 98% Sand, time 2 weeks, Association Polymer, dosage 4 g
[20] = hybrid Centaurus, 98% Sand, time 2 weeks, Association Polymer, dosage 10 g
[21] = hybrid Centaurus, 98% Sand, time 2 weeks, PVAc/PVAl, dosage 4 g
[22] = hybrid Centaurus, 98% Sand, time 2 weeks, PVAc/PVAl, dosage 10 g
[23] = hybrid Centaurus, Stein Earth, time 1 week, Association Polymer, dosage 4 g
[24] = hybrid Centaurus, Stein Earth, time 1 week, Association Polymer, dosage 10 g
[25] = hybrid Centaurus, Stein Earth, time 1 week, PVAc/PVAl, dosage 4 g
[26] = hybrid Centaurus, Stein Earth, time 1 week, PVAc/PVAl, dosage 10 g
[27] = hybrid Centaurus, Stein Earth, time 2 weeks, Association Polymer, dosage 4 g
[28] = hybrid Centaurus, Stein Earth, time 2 weeks, Association Polymer, dosage 10 g
[29] = hybrid Centaurus, Stein Earth, time 2 weeks, PVAc/PVAl, dosage 4 g
[30] = hybrid Centaurus, Stein Earth, time 2 weeks, PVAc/PVAl, dosage 10 g
[31] = hybrid F7 x F2, 10 g/kg, 90% Sand, time 1 week, Association Polymer
[32] = hybrid F7 x F2, 10 g/kg, 90% Sand, time 1 week, PVAc/PVAl
[33] = hybrid F7 x F2, 10 g/kg, 90% Sand, time 2 weeks, Association Polymer
[34] = hybrid F7 x F2, 10 g/kg, 90% Sand, time 2 weeks, PVAc/PVAl
[35] = hybrid F7 x F2, 10 g/kg, 95% Sand, time 1 week, Association Polymer
[36] = hybrid F7 x F2, 10 g/kg, 95% Sand, time 1 week, PVAc/PVAl
[37] = hybrid F7 x F2, 10 g/kg, 95% Sand, time 2 weeks, Association Polymer
[38] = hybrid F7 x F2, 10 g/kg, 95% Sand, time 2 weeks, PVAc/PVAl
[39] = hybrid F7 x F2, 10 g/kg, 98% Sand, time 1 week, Association Polymer
[40] = hybrid F7 x F2, 10 g/kg, 98% Sand, time 1 week, PVAc/PVAl
[41] = hybrid F7 x F2, 10 g/kg, 98% Sand, time 2 weeks, Association Polymer
[42] = hybrid F7 x F2, 10 g/kg, 98% Sand, time 2 weeks, PVAc/PVAl
[43] = hybrid F7 x F2, 10 g/kg, 100% Sand, time 1 week, Association Polymer
[44] = hybrid F7 x F2, 10 g/kg, 100% Sand, time 1 week, PVAc/PVAl
[45] = hybrid F7 x F2, 10 g/kg, 100% Sand, time 2 weeks, Association Polymer
[46] = hybrid F7 x F2, 10 g/kg, 100% Sand, time 2 weeks, PVAc/PVAl

For `CCCCOC(=O)N(C)SN(C)C(=O)Oc1cccc2c1OC(C)(C)C2` [furathiocarb], the “Percent survival of H. virescens larvae” value [1, 3] was 4%, the “Scores of damage caused by H. virescens larvae” value (“Scores of damage caused” below) [1, 3] was 2.1 and the “Percent survival of H. virescens larvae” value [1, 4] was 6%. The “Scores of damage caused” value [1, 4] was 2.5, the “Percent survival of H. virescens larvae” value [1, 5] was 50% and the “Scores of damage caused” value [1, 5] was 4.9. The “Percent survival of H. virescens larvae” value [1, 6] was 28%, the “Scores of damage caused” value [1, 6] was 3.4 and the “Percent survival of H. virescens larvae” value [1, 7] was 8%. The “Scores of damage caused” value [1, 7] was 2.7, the “Percent survival of H. virescens larvae” value [1, 8] was 37% and the “Scores of damage caused” value [1, 8] was 4.7. For the same molecule, the “Percent survival of H. virescens larvae” value [1, 9] was 30%, the “Scores of damage caused” value [1, 9] was 3.3 and the “Percent survival of H. virescens larvae” value [1, 10] was 2%. For the same molecule, the “Scores of damage caused” value [1, 10] was 1.8, the “Percent survival of H. virescens larvae” value [1, 11] was 22% and the “Scores of damage caused” value [1, 11] was 3.3. The “Percent survival of H. virescens larvae” value [1, 12] was 8%, the “Scores of damage caused” value [1, 12] was 2.1 and the “Percent survival of H. virescens larvae” value [1, 13] was 9%. For the same molecule, the “Scores of damage caused” value [1, 13] was 2.7, the “Percent survival of H. virescens larvae” value [1, 14] was 21% and the “Scores of damage caused” value [1, 14] was 3.5. The “Percent survival of H. virescens larvae” value [1, 15] was 2%, the “Scores of damage caused” value [1, 15] was 1.5 and the “Percent survival of H. virescens larvae” value [1, 16] was 0%. The “Scores of damage caused” value [1, 16] was 1.3, the “Percent survival of H. virescens larvae” value [1, 17] was 8% and the “Scores of damage caused” value [1, 17] was 1.9. For the same molecule, the “Percent survival of H. virescens larvae” value [1, 18] was 12%, the “Scores of damage caused” value [1, 18] was 2.0 and the “Percent survival of H. virescens larvae” value [1, 19] was 31%. For the same molecule, the “Scores of damage caused” value [1, 19] was 4.1, the “Percent survival of H. virescens larvae” value [1, 20] was 13% and the “Scores of damage caused” value [1, 20] was 2.8. The “Percent survival of H. virescens larvae” value [1, 21] was 46%, the “Scores of damage caused” value [1, 21] was 5.5 and the “Percent survival of H. virescens larvae” value [1, 22] was 51%. For the same molecule, the “Scores of damage caused” value [1, 22] was 5.8, the “Percent survival of H. virescens larvae” value [1, 23] was 7% and the “Scores of damage caused” value [1, 23] was 1.9. For the same molecule, the “Percent survival of H. virescens larvae” value [1, 24] was 10%, the “Scores of damage caused” value [1, 24] was 2.0 and the “Percent survival of H. virescens larvae” value [1, 25] was 25%. For the same molecule, the “Scores of damage caused” value [1, 25] was 2.8, the “Percent survival of H. virescens larvae” value [1, 26] was 10% and the “Scores of damage caused” value [1, 26] was 2.0. For the same molecule, the “Percent survival of H. virescens larvae” value [1, 27] was 49%, the “Scores of damage caused” value [1, 27] was 4.4 and the “Percent survival of H. virescens larvae” value [1, 28] was 22%. For the same molecule, the “Scores of damage caused” value [1, 28] was 3.0, the “Percent survival of H. virescens larvae” value [1, 29] was 32% and the “Scores of damage caused” value [1, 29] was 3.9. For the same molecule, the “Percent survival of H. virescens larvae” value [1, 30] was 27%, the “Scores of damage caused” value [1, 30] was 3.4 and the “Percent survival of H. virescens larvae” value [1, 31] was 34%. For the same molecule, the “Scores of damage caused” value [1, 31] was 4.9, the “Percent survival of H. virescens larvae” value [1, 32] was 48% and the “Scores of damage caused” value [1, 32] was 6.0. The “Percent survival of H. virescens larvae” value [1, 33] was 42%, the “Scores of damage caused” value [1, 33] was 4.2 and the “Percent survival of H. virescens larvae” value [1, 34] was 61%. The “Scores of damage caused” value [1, 34] was 4.9, the “Percent survival of H. virescens larvae” value [1, 35] was 16% and the “Scores of damage caused” value [1, 35] was 3.2. For the same molecule, the “Percent survival of H. virescens larvae” value [1, 36] was 48%, the “Scores of damage caused” value [1, 36] was 6.4 and the “Percent survival of H. virescens larvae” value [1, 37] was 50%. The “Scores of damage caused” value [1, 37] was 4.4, the “Percent survival of H. virescens larvae” value [1, 38] was 64% and the “Scores of damage caused” value [1, 38] was 4.8. The “Percent survival of H. virescens larvae” value [1, 39] was 16%, the “Scores of damage caused” value [1, 39] was 4.2 and the “Percent survival of H. virescens larvae” value [1, 40] was 36%. The “Scores of damage caused” value [1, 40] was 6.5, the “Percent survival of H. virescens larvae” value [1, 41] was 37% and the “Scores of damage caused” value [1, 41] was 3.7. For the same molecule, the “Percent survival of H. virescens larvae” value [1, 42] was 75%, the “Scores of damage caused” value [1, 42] was 5.2 and the “Percent survival of H. virescens larvae” value [1, 43] was 18%. The “Scores of damage caused” value [1, 43] was 3.5, the “Percent survival of H. virescens larvae” value [1, 44] was 40% and the “Scores of damage caused” value [1, 44] was 5.1. The “Percent survival of H. virescens larvae” value [1, 45] was 45%, the “Scores of damage caused” value [1, 45] was 4.0 and the “Percent survival of H. virescens larvae” value [1, 46] was 42%. For the same molecule, the “Scores of damage caused” value [1, 46] was 3.6, the “Solubility of Furathiocarb, ppm” value ([2]; 1000 ppm Alipal CO-433) was 25 ppm and the “Solubility of Furathiocarb, ppm” value ([2]; 1000 ppm Alipal EP110) was 16 ppm. For the same molecule, the “Solubility of Furathiocarb, ppm” value ([2]; 1000 ppm Ethomeen T/15) was 89 ppm, the “Solubility of Furathiocarb, ppm” value ([2]; 1000 ppm Pluronic F68) was 15 ppm and the “Solubility of Furathiocarb, ppm” value ([2]; 1000 ppm Triton N101) was 220 ppm. The “enhancement in the solubility (increase)” value ([2]; Ethomeen T/15 solution) was 5 fold, the “Solubility of Furathiocarb, ppm” value ([2]; H₂O) was 15 ppm and the “enhancement in the solubility (increase)” value ([2]; Triton N101 solution) was 14 fold.
